# Structures can show the parent of a compound that is named as a salt.
# Legend:
# [1] = molecular target: ULK1 (Homo sapiens (Human), UniProt O75385); experiment: ULK1 IC50; format: biochemical
# [2] = tested on: Cell; experiment: Cell EC50; format: cell-based
# [3] = Kinetic Solubility; format: physicochemical; details: kinetic from dmso stock
# [4] = molecular target: ULK2 (Homo sapiens (Human), UniProt Q8IYT8); experiment: ULK2 IC50; format: biochemical
# Chain of ULK2 (Q8IYT8 whole entry): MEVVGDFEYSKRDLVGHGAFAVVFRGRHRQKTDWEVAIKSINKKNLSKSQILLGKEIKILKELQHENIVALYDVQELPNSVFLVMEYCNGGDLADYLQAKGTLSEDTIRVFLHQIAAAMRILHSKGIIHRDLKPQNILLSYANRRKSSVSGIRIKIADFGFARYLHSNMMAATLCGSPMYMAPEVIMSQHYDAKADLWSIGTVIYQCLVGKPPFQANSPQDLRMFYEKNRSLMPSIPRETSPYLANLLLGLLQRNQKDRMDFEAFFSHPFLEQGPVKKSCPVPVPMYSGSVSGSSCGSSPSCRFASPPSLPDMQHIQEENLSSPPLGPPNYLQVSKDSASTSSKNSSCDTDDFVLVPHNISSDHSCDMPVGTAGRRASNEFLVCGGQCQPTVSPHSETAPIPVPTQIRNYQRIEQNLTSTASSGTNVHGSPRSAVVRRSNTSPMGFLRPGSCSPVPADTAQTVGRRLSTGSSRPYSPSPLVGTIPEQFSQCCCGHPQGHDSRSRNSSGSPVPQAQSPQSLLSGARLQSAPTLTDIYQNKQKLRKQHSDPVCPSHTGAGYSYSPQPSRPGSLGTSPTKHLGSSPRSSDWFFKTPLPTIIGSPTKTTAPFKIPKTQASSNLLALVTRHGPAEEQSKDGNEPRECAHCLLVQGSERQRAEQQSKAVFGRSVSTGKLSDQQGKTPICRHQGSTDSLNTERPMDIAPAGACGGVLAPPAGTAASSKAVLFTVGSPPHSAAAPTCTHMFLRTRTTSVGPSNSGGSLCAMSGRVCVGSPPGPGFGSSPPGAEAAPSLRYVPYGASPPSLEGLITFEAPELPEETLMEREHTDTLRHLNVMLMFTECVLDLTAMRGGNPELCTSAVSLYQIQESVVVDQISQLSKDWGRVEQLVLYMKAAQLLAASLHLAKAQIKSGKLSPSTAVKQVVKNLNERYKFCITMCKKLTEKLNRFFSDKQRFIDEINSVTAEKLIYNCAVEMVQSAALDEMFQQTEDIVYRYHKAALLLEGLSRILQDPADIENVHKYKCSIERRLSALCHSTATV
# Chain of ULK1 (O75385 whole entry): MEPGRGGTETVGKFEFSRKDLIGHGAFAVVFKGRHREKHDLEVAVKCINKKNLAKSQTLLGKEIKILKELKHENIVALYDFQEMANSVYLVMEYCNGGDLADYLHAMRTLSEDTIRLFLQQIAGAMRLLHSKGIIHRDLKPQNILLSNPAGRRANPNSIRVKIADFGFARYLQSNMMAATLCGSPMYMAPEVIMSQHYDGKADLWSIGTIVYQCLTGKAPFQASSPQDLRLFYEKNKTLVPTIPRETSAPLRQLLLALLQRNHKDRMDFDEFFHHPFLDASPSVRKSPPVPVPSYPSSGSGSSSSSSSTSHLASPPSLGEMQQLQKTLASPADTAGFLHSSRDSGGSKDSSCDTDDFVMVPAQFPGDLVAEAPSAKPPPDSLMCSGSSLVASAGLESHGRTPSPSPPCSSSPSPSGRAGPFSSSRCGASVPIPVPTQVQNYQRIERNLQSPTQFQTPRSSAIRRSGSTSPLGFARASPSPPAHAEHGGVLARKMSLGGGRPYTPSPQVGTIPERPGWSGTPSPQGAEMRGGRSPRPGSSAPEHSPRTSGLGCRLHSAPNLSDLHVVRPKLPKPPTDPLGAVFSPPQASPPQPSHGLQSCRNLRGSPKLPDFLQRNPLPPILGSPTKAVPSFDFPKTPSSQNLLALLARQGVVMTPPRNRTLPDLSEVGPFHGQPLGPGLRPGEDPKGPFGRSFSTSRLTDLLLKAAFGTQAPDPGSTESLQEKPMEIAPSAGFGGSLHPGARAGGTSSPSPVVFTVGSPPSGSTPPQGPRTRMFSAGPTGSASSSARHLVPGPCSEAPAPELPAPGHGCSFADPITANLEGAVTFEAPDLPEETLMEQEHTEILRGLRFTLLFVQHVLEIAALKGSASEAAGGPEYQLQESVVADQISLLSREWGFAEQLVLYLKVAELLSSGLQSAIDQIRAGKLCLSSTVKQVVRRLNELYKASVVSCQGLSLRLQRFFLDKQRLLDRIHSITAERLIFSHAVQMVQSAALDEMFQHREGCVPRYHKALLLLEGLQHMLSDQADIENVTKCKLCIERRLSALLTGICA
SMILES,IC50 [1] [nM],EC50 [2] [nM],solubility kinetic [3] [µM],IC50 [4] [nM]
O=C(N[C@@H](C1CC1)C(F)(F)F)c1cc(-c2cnn3cc(N4CCNCC4)cnc23)cs1,1 to 49,–,–,–
"CCC(CC)NC(=O)c1cc(-c2cnn3cc(-n4ccccc4=O)cnc23)cs1 [4-[6-(2-oxo-1,2-dihydropyridin-1-yl)pyrazolo[1,5-a]pyrimidin-3-yl]-N-(pentan-3-yl)thiophene-2-carboxamide]",500 to 1000,–,–,–
CCC(CC)NC(=O)c1cc(-c2cnn3cc(N4CCC(NC(=O)OC(C)(C)C)CC4)cnc23)cs1,50 to 99,> 1000,–,–
CCC(CC)NC(=O)c1cc(-c2cnn3cc(N4CCNCC4)cnc23)cs1 [hydrochloride],50 to 99,500 to 1000,> 300,–
"CC(C)(C)OC(=O)N[C@@H]1CCCC[C@@H]1NC(=O)c1cc(-c2cnn3cc(N4CCN(C(=O)OC(C)(C)C)CC4)cnc23)cs1 [tert-butyl 4-[3-(5-{[(1S,2R)-2-{[(tert-butoxy)carbonyl]amino}cyclohexyl]carbamoyl}thiophen-3-yl)pyrazolo[1,5-a]pyrimidin-6-yl]piperazine-1-carboxylate]",100 to 499,–,–,500 to 1000
"CC(C)(CO)NC(=O)c1cc(-c2cnn3cc(N4CCN(C(=O)OC(C)(C)C)CC4)cnc23)cs1 [tert-butyl 4-(3-{5-[(1-hydroxy-2-methylpropan-2-yl)carbamoyl]thiophen-3-yl}pyrazolo[1,5-a]pyrimidin-6-yl) piperazine-1-carboxylate]",1 to 49,–,–,100 to 499
"CC(C)(CO)NC(=O)c1cc(-c2cnn3cc(N4CCNCC4)cnc23)cs1 [N-(1-hydroxy-2-methylpropan-2-yl)-4-[6-(piperazin-1-yl)pyrazolo[1,5-a]pyrimidin-3-yl]thiophene-2-carboxamide hydrochloride]",100 to 499,–,–,500 to 1000
CC[C@H](NC(=O)c1cc(-c2cnn3cc(Nc4ccccc4)cnc23)cs1)C(F)(F)F,1 to 49,–,–,–
"CCC(CC)NC(=O)c1cc(-c2cnn3cc(NC4CC4)cnc23)cs1 [4-[6-(cyclopropylamino)pyrazolo[1,5-a]pyrimidin-3-yl]-N-(pentan-3-yl)thiophene-2-carboxamide]",100 to 499,–,–,–
CCC(NC(=O)c1cc(-c2cnn3cc(Nc4ccccc4)cnc23)cs1)C1CC1 (stereo not drawn),1 to 49,–,–,–
O=C(N[C@@H](C1CC1)C(F)(F)F)c1cc(-c2cnn3cc(Nc4ccccc4)cnc23)cs1,1 to 49,–,–,–
"CCC(CC)NC(=O)c1cc(-c2cnn3cc(N4CCCC4)cnc23)cs1 [N-(pentan-3-yl)-4-[6-(pyrrolidin-1-yl)pyrazolo[1,5-a]pyrimidin-3-yl]thiophene-2-carboxamide]",500 to 1000,–,–,–
O=C(N[C@@H](C1CC1)C(F)(F)F)c1cc(-c2cnn3cc(Nc4ccc(F)cc4)cnc23)cs1,1 to 49,–,–,–
NC1CCN(c2cnc3c(-c4csc(C(=O)N[C@@H](C5CC5)C(F)(F)F)c4)cnn3c2)CC1,1 to 49,–,–,–
"CCC(CC)NC(=O)c1cc(-c2cnn3cc(N4CCN(C(=O)OC(C)(C)C)CC4)cnc23)cs1 [tert-butyl 4-(3-{5-[(pentan-3-yl)carbamoyl]thiophen-3-yl}pyrazolo[1,5-a]pyrimidin-6-yl) piperazine-1-carboxylate]",1 to 49,> 1000,–,–
"CCC(CC)NC(=O)c1cc(-c2cnn3cc(N4CCC(N)CC4)cnc23)cs1 [4-[6-(4-aminopiperidin-1-yl)pyrazolo[1,5-a]pyrimidin-3-yl]-N-(pentan-3-yl)thiophene-2-carboxamide hydrochloride]",1 to 49,100 to 499,203,50 to 99
"N[C@@H]1CCCC[C@@H]1NC(=O)c1cc(-c2cnn3cc(N4CCNCC4)cnc23)cs1 [N-[(1S,2R)-2-aminocyclohexyl]-4-[6-(piperazin-1-yl)pyrazolo[1,5-a]pyrimidin-3-yl]thiophene-2-carboxamide dihyrochloride]",1 to 49,1 to 49,> 300,1 to 49
"CCC(CC)NC(=O)c1cc(-c2cnn3cc(Nc4ccccc4)cnc23)cs1 [N-(pentan-3-yl)-4-[6-(phenylamino)pyrazolo[1,5-a]pyrimidin-3-yl]thiophene-2-carboxamide]",1 to 49,100 to 499,–,1 to 49

# Source: patent publication US20250059194A1, “ULK1 AND ULK2 INHIBITORS” (Board of Trustees of Michigan State University, priority 2021, published 2025)
